Assay results: BindingDB's records for doi:10.1021/jm7014149 (Vu University Amsterdam, 2008)

How the values were obtained:
Conditions in all cases: pH 7.4; 25 °C
Histamine H4 receptor = Histamine H4 receptor (Homo sapiens, UniProt Q9H3N8); experiment: H4R Radioligand Binding Assay
Method: (§1) Ligand displacement assays were performed on CHO cells membranes expressing hH4R. Retained radioactivity was determined by liquid scintillation counting. Nonspecific binding was determined in the presence of 10 uM histamine. The Ki values were calculated based on an experimentally determined appropriate Kd value according to Cheng and Prusoff.

Histamine H3 receptor [1] = molecular target: T1, Histamine H3 receptor (Homo sapiens, UniProt Q9Y5N1); experiment: Radioligand Binding Assay and Functional [35S]GTP-gamma-S Binding Assay
Method: as §1, with “hH3R.” for “hH4R.”, “1” for “10”, “thioperamide.” for “histamine.”, “Prusoff. EC50 is a measure of functional property of compound on [35S]GTP-gamma-S binding to membranes expressing H3R receptors.” for “Prusoff.”

Histamine H3 receptor [2] = molecular target: T1, Histamine H3 receptor; experiment: H3R Radioligand Binding Assay

T1 sequence (Q9Y5N1 whole entry): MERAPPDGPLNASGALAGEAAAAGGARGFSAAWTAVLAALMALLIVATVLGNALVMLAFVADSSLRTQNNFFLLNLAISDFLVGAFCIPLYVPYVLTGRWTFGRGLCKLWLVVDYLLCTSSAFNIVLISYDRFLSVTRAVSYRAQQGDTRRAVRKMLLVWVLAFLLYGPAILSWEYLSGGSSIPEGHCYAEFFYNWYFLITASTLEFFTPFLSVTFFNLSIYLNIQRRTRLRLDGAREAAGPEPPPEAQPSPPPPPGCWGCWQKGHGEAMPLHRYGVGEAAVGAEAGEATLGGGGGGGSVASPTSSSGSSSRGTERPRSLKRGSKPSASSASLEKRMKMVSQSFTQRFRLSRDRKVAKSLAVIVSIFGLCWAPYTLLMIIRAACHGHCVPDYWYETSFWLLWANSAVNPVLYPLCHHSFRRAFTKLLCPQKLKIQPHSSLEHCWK
Sequence of Histamine H4 receptor (Q9H3N8 whole entry): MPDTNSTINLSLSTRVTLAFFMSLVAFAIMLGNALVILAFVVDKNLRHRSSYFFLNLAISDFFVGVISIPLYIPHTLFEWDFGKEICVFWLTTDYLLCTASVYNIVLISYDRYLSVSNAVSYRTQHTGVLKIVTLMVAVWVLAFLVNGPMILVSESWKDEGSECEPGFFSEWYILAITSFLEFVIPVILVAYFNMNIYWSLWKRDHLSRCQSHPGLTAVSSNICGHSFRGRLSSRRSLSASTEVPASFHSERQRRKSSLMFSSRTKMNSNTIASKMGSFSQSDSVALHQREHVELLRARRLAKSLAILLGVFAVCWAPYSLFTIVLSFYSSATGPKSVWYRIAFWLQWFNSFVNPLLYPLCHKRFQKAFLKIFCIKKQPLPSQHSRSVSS

Row | SMILES | Ki (Histamine H4 receptor) [nM] | Ki (Histamine H3 receptor [1]) [nM] | Ki (Histamine H3 receptor [2]) [nM]
1 | CC(C)(C)CC(=O)c1cccc(Cc2cnc[nH]2)c1 [1-[3-(1H-imidazol-4-ylmethyl)phenyl]-3,3-dimethylbutan-1-one] | 6 |  | 
2 | CC1CC(C)(C)N=C(c2cccc(Cc3c[nH]cn3)c2)O1 (stereo unspecified) [2-[3-(1H-imidazol-4-ylmethyl)phenyl]-4,4,6-trimethyl-5,6-dihydro-4H-1,3-oxazine] |  | 1 | 
3 | C(#Cc1cccc(Cc2cnc[nH]2)c1)c1ccccc1 [4-{[3-(2-phenylethynyl)phenyl]methyl}-1H-imidazole] |  |  | 2
4 | CC(C)(C)C#Cc1cccc(Cc2c[nH]cn2)c1 [4-{[3-(3,3-dimethylbut-1-yn-1-yl)phenyl]methyl}-1H-imidazole] | 6 | 4 | 
5 | CCCC#Cc1cccc(Cc2c[nH]cn2)c1 [4-{[3-(pent-1-yn-1-yl)phenyl]methyl}-1H-imidazole] |  |  | 3
